Data taken from patent publication US20240109915A1, “NOVEL ACC INHIBITORS” (Pfizer Inc., priority 2022, published 2024).

Target: recombinant human ACC1 (rhACC1) (Homo sapiens (Human), UniProt Q13085)
Assay: Transcreener ADP detection FP assay, direct inhibition of rhACC1
Assay type: biochemical
Settings: Geomean IC50, n ≥ 2 unless * then n = 1; 50 μM ATP, 30 μM acetyl-CoA
Experimental: The direct inhibition of ACC1 for the compounds of the present invention was determined using preparations of recombinant human ACC1 (rhACC1) (SEQ ID NO. 1)
Two liters of SF9 cells, infected with recombinant baculovirus containing full length human ACC1 cDNA, were suspended in ice-cold lysis buffer (25 mM Tris, pH 7.5; 150 mM NaCl; 10% glycerol; 5 mM imidazole (EMD Bioscience; Gibbstown, NJ); 2 mM TCEP (BioVectra; Charlottetown, Canada); Benzonase nuclease (10000 U/100 g cell paste; Novagen; Madison, WI); EDTA-free protease inhibitor cocktail (1 tab/50 ml; Roche Diagnostics; Mannheim, Germany). Cells were lysed by 3 cycles of freeze-thaw and centrifuged at 40,000×g for 40 minutes (4° C.). Supernatant was directly loaded onto a HisTrap FF crude column (GE Healthcare; Piscataway, NJ) and eluted with an imidazole gradient up to 0.5 M over 20 column volumes (CV). ACC1-containing fractions were pooled and diluted 1:5 with 25 mM Tris, pH 7.5, 2 mM TCEP, 10% glycerol and direct loaded onto a CaptoQ (GE Healthcare) column and eluted with an NaCl gradient up to 1 M over 20 CV's. Phosphate groups were removed from purified ACC1 by incubation with lambda phosphatase (100 U/10 μM target protein; New England Biolabs; Beverly, MA) for 14 hours at 4° C.; okadaic acid was added (1 μM final concentration; Roche Diagnostics) to inhibit the phosphatase. Purified ACC1 was exchanged into 25 mM Tris, pH 7.5, 2 mM TCEP, 10% glycerol, 0.5 M NaCl by 6 hour dialysis at 4° C. Aliquots were prepared and frozen at −80° C.
Measurement of rhACC1 Inhibition rhACC1 was assayed in a Corning #3820 (Corning, Tewksbury, MA) 384-well plate using the Transcreener ADP detection FP assay kit (Bellbrook Labs, Madison, Wisconsin) using the manufacturer's recommended conditions for a 50 μM ATP reaction. The final conditions for the assay were 50 mM HEPES, pH 7.2, 10 mM MgCl2, 7.5 mM tripotassium citrate, 2 mM DTT, 0.1 mg/mL BSA, 30 μM acetyl-CoA, 50 μM ATP, and 10 mM KHCO3. Typically, a […] was run for 60 min at room temp, and 10 μl of Transcreener stop and detect buffer was added and the combination incubated at room temp for an overnight (18 hours). The data was acquired on an Envision Fluorescence reader (PerkinElmer) using a 620 excitation Cy5 FP general dual mirror, 620 excitation Cy5 FP filter, 688 emission (S) and a 688 (P) emission filter.

Molecule | IC50 [nM]
2-(tert-butyl)-1′-(4-chloro-5-methoxy-1H-indole-7-carbonyl)-5H-spiro[benzo[d]thiazole-6,4′-piperidin]-4(7H)-one [Example 37] | 1.3
Cc1n[nH]c2c(C)cc(C(=O)N3CCC4(CC3)CC(=O)c3nc(C(C)(C)C(C)C)sc3C4)cc12 [Example 3, 1′-(3,7-dimethyl-1H-indazole-5-carbonyl)-2-(2,3-dimethylbutan-2-yl)-5H-spiro[benzo[d]thiazole-6,4′-piperidin]-4(7H)-one] | 7.9
CCc1nc2c(s1)CC1(CCN(C(=O)c3cc(C)c4[nH]nc(C)c4c3)CC1)CC2=O [Example 6, 1′-(3,7-dimethyl-1H-indazole-5-carbonyl)-2-ethyl-5H-spiro[benzo[d]thiazole-6,4′-piperidin]-4(7H)-one] | 45.5
CNc1ccc2c(C)cc(C(=O)N3CCC4(CC3)CC(=O)c3nc(C(C)C)sc3C4)cc2n1 [Example 8, 2-isopropyl-1′-(5-methyl-2-(methylamino)quinoline-7-carbonyl)-5H-spiro[benzo[d]thiazole-6,4′-piperidin]-4(7H)-one] | 5.5
COc1cc(C(=O)N2CCC3(CC2)CC(=O)c2nc(C(C)C)sc2C3)cc2c(C)nn(C)c12 [Example 10, 2-isopropyl-1′-(7-methoxy-1,3-dimethyl-1H-indazole-5-carbonyl)-5H-spiro[benzo[d]thiazole-6,4′-piperidin]-4(7H)-one] | 10
COc1cc(C(=O)N2CCC3(CC2)CC(=O)c2nc(C4(C)CC4)sc2C3)cc2c(C)nn(C)c12 [Example 11, 1′-(7-methoxy-1,3-dimethyl-1H-indazole-5-carbonyl)-2-(1-methylcyclopropyl)-5H-spiro[benzo[d]thiazole-6,4′-piperidin]-4(7H)-one] | 4.5
[2H]C([2H])([2H])C(c1nc2c(s1)CC1(CCN(C(=O)c3cc(OC)c4c(c3)c(C)nn4C)CC1)CC2=O)(C([2H])([2H])[2H])C([2H])([2H])[2H] [Example 12, 1′-(7-methoxy-1,3-dimethyl-1H-indazole-5-carbonyl)-2-(2-(methyl-d3)propan-2-yl-1,1,1,3,3,3-d6)-5H-spiro[benzo[d]thiazole-6,4′-piperidin]-4(7H)-one] | 5.2

More lines, now with the values ahead:

IC50 [nM] | Molecule
23.2 | CCOc1cc(C(=O)N2CCC3(CC2)Cc2sc(C(C)(C)C)nc2C(O)C3)cc2c(C)nn(C)c12 (racemic) [Example 109, rac-(R)-(2-(tert-butyl)-4-hydroxy-4,7-dihydro-5H-spiro[benzo[d]thiazole-6,4′-piperidin]-1′-yl)(7-ethoxy-1,3-dimethyl-1H-indazol-5-yl)methanone]
10.6 | Cc1n[nH]c2c(C)cc(C(=O)N3CCC4(CC3)CC(=O)c3nc(C5(C)CC5)sc3C4)cc12 [Example 1, 1′-(3,7-dimethyl-2H-indazole-5-carbonyl)-2-(1-methylcyclopropyl)-5H-spiro[benzo[d]thiazole-6,4′-piperidin]-4(7H)-one]
11 | Cc1n[nH]c2c(C)cc(C(=O)N3CCC4(CC3)CC(=O)c3nc(C56CC(C5)C6)sc3C4)cc12 [Example 7, 2-(bicyclo[1.1.1]pentan-1-yl)-1′-(3,7-dimethyl-1H-indazole-5-carbonyl)-5H-spiro[benzo[d]thiazole-6,4′-piperidin]-4(7H)-one]
13.4 | CNc1ccc2c(C)cc(C(=O)N3CCC4(CC3)CC(=O)c3nc(C5(C)CC5)sc3C4)cc2n1 [Example 9, 1′-(5-methyl-2-(methylamino)quinoline-7-carbonyl)-2-(1-methylcyclopropyl)-5H-spiro[benzo[d]thiazole-6,4′-piperidin]-4(7H)-one]
3.2 | CCNc1cnc2c(C)cc(C(=O)N3CCC4(CC3)CC(=O)c3nc(C(C)(C)C)sc3C4)cc2c1 [Example 18, 2-(tert-butyl)-1′-(3-(ethylamino)-8-methylquinoline-6-carbonyl)-5H-spiro[benzo[d]thiazole-6,4′-piperidin]-4(7H)-one]
